In patent US5126348A, “Bioavailability enhancers” (priority 1989, dated 1992):
Like-named read-outs stand apart in the source and are kept apart here. Blank lines part the entries; values can stand above or below the compound they belong to.

Columns and labels:
[1] = design: species or system beagle dog; conditions: dog, in vivo
[2] = in vivo
From the text: Venous blood samples were taken at time intervals listed below. […] After administration to the human volunteer, blood samples were taken at the same time intervals as the previous test. Relative salicylic acid concentrations of the samples were compared using fluorescence units as determined by spectrofluorometer.

[3] = Theophylline blood levels as a function of time after oral administration, with and without nicotinic acid (Example 1)
From the text: FIG. 1 is a graph showing theophylline blood levels as a function of time after administration, comparing theophylline in combination with nicotinic acid with theophylline alone.

[4] = cited from earlier work
[5] = cited from earlier work; remark: listed apart in the source
[6] = cited from earlier work; remark: listed apart in the source

- absorption induced by reserpine [1]: near-complete absorption
- elimination kinetics, reserpine-treated vs. non-pretreated dogs [1]: similar
- time of peak plasma concentrations of SA, reserpine-treated vs. non-pretreated dogs [1]: at the same time in both tests
- % of maximum concentration ([1]; 10 min): 24%
- plasma SA concentration ([1]; 10 min): 19.9 µg/mL
- % of maximum concentration ([1]; 20 min): 47%
- % of maximum concentration ([1]; 30 min): 70%
- plasma SA concentration ([1]; 60 min): 72.8 µg/mL
- % of maximum concentration ([1]; 120 min): 100%
- plasma SA concentration (max) ([1]; 120 min): 81.4 µg/mL
- Total area under the plasma level curve, increase over non-pretreated dogs ([1]; 480 min): 13.2%
- total AUC, increase ([1]; iv): 14.5%
- % of Dose of ASA Absorbed (using IV ASA as 100% absorption) ([1]; po): 87.5%
- bioavailability of aspirin with nicotinic acid [2]: enhanced
Compound: CC(=O)Oc1ccccc1C(=O)O [ASA, acetylsalicylic acid]
- plasma concentration of SA, reserpine-treated vs. non-pretreated dogs [1]: considerably higher at each time interval

Compound: Cn1c(=O)c2[nH]cnc2n(C)c1=O [Theophylline, theophylline]
- concentration at 29 min ([3]; human, in vivo, po, 300 mg): < 500 ng/mL
- concentration at 1.05 h ([3]; human, in vivo, po, 300 mg): 2200 ng/mL
- concentration at 1.55 h ([3]; human, in vivo, po, 300 mg): 4400 ng/mL
- concentration at 121 min ([3]; human, in vivo, po, 300 mg): 5300 ng/mL
- concentration at 2.5 h ([3]; human, in vivo, po, 300 mg): 7000 ng/mL
- concentration at 184 min ([3]; human, in vivo, po, 300 mg): 7200 ng/mL
- Blood levels of theophylline ([3]; time after administration 0, oral, 300 mg theophylline, with or without 100 mg niacin): < 50 ng/mL

Compound: NC(=O)c1cccnc1 [niacinamide]
- vasodilation or flushing ([4]; niacinamide form): does not cause the vasodilation or flushing

Compound: O=C(O)c1cccnc1 [nicotinic acid]
- toxicity ([4]; even at high dosages): relatively harmless
- low density lipids and cholesterol in the blood ([4]; high doses (3-6 g/day)): lowers
- peripheral vascular resistance ([4]; high doses (3-6 g/day)): decreases
- stroke volume of the heart ([4]; high doses (3-6 g/day)): increases
- tolerated dosage ([4]; human, in vivo): up to 6 grams per day
- effects on blood pressure ([4]; in vivo): only minor effects
- heart rate and cardiac output ([4]; in vivo): increases
- peripheral blood flow ([4]; in vivo): increases
- flushing effect with acetylsalicylic acid ([4]; with acetylsalicylic acid): reduced
- absorption with food ingestion [5]: not affected

Compound: CC(C)NCC(O)COc1cccc2ccccc12 (stereo not shown) [propranolol]
- bioavailability with hydralazine [6]: increased bioavailability
